Reference: US12617756B2 (ABIVAX, priority 2019, dated 2026)

tested on: RSV A2; assay: Screening for RSV inhibition using Viral ToxGlo assay (cytopathic effect inhibition in HEp-2 cells); type: cell-based, Respiratory Syncytial Virus (RSV); conditions: human respiratory syncytial virus; RSV A2 in HEp-2 cells, MOI 0.5, 72h p.i., cytopathic effect inhibition relative to virus control, Viral ToxGlo luminescence
Summary of the method: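 HEp-2 cells in 2% FBS medium infected with RSV A2 right after compound addition (max 1% DMSO), uninfected wells used for cytotoxicity. After 72 h p.i. at 37 °C/5% CO2, cell viability read by Viral ToxGlo luminescence as measure of cytopathic effect.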

Going from `CC1(NC(=O)c2ccnc(Nc3ccc(C(=O)N=C4NCCN4)cc3C3CC3)c2Cl)CC1` [Compound 123, 3-chloro-2-[(2-cyclopropyl-4-{[imidazolidin-2-ylidene]carbamoyl}phenyl)amino]-N-(1-methylcyclopropyl)pyridine-4-carboxamide] to `CC1(NC(=O)c2nccc(Nc3ccc(C(=O)N=C4NCCN4)cc3C3CC3)c2Cl)CC1` [Compound 150, 3-chloro-4-[(2-cyclopropyl-4-{[imidazolidin-2-ylidene]carbamoyl}phenyl)amino]-N-(1-methylcyclopropyl)pyridine-2-carboxamide], the EC50 rises from 83 nM to 263 nM (3.2-fold).

Compared with `CC1(NC(=O)c2cccc(Nc3c(F)cc(C(=O)N=C4NCCN4)cc3C3CCCO3)c2)CC1` (stereo not shown) [Compound 125, 3-fluoro-N—[imidazolidin-2-ylidene]-4-({3-[(1-methylcyclopropyl)carbamoyl]phenyl}amino)-5-(oxolan-2-yl)benzamide], `CC1(NC(=O)c2cccc(Nc3ccc(C(=O)N=C4NCCN4)cc3C3CCCO3)c2)CC1` (stereo not shown) [Compound 140, N-[imidazolidin-2-ylidene]-4-({3-[(1-methylcyclopropyl)carbamoyl]phenyl}amino)-3-(oxolan-2-yl)benzamide] is 12-fold higher in EC50: 19.1 nM for the first, 227 nM for the second. The first is the more potent here.

Compared with `N#CC1(NC(=O)c2cccc(Nc3c(F)cc(C(=O)N=C4NCCN4)cc3C3CC3)c2)CC1` [Compound 127, 4-({3-[(1-cyanocyclopropyl)carbamoyl]phenyl}amino)-3-cyclopropyl-5-fluoro-N-[imidazolidin-2-ylidene]benzamide], `CC1(NC(=O)c2cccc(Nc3c(C#N)cc(C(=O)N=C4NCCN4)cc3C3CC3)c2)CC1` [Compound 149, 3-cyano-5-cyclopropyl-N-[imidazolidin-2-ylidene]-4-({3-[(1-methylcyclopropyl)carbamoyl]phenyl}amino)benzamide] is 2.2-fold lower in EC50: 101 nM for the first, 45.8 nM for the second. The second is the more potent here.

Compared with `CC(C)NC(=O)c1cc(F)cc(Nc2c(F)cc(C(=O)N=C3NCCN3)cc2C2CC2)c1` [Compound 128, 3-cyclopropyl-5-fluoro-4-({3-fluoro-5-[(propan-2-yl)carbamoyl]phenyl}amino)-N-[imidazolidin-2-ylidene]benzamide], `CC(C)NC(=O)c1cccc(Nc2c(F)cc(C(=O)N=C3NCCN3)cc2C2CC2)c1F` [Compound 130, 3-cyclopropyl-5-fluoro-4-({2-fluoro-3-[(propan-2-yl)carbamoyl]phenyl}amino)-N-[imidazolidin-2-ylidene]benzamide] is 1.8-fold lower in EC50: 13.2 nM for the first, 7.3 nM for the second.

First: CC1(NC(=O)c2cccc(Nc3c(F)cc(C(=O)N=C4NCCN4)cc3C3CC3)c2Cl)CC1 [Compound 129, 4-({2-chloro-3-[(1-methylcyclopropyl)carbamoyl]phenyl}amino)-3-cyclopropyl-5-fluoro-N-[imidazolidin-2-ylidene]benzamide]
Second: CC1(NC(=O)c2cccc(Nc3c(F)cc(C(=O)N=C4NCCN4)cc3C3CC3)c2F)CC1 [Compound 143, 3-cyclopropyl-5-fluoro-4-({2-fluoro-3-[(1-methylcyclopropyl)carbamoyl]phenyl}amino)-N-[imidazolidin-2-ylidene]benzamide]
The EC50 of the first is 14-fold lower: 4.3 nM for the first, 59.7 nM for the second. The first is the more potent here.

First: CC(C)NC(=O)c1cccc(Nc2cc(F)c(C(=O)N=C3NCCN3)cc2C2CC2)c1 [Compound 131, 5-cyclopropyl-2-fluoro-N-[imidazolidin-2-ylidene]-4-({3-[(propan-2-yl)carbamoyl]phenyl}amino)benzamide]
Second: CC(C)NC(=O)c1cc(F)cc(Nc2ccc(C(=O)N=C3NCCN3)cc2C2CC2)c1F [Compound 138, 3-[(2-cyclopropyl-4-{[imidazolidin-2-ylidene]carbamoyl}phenyl)amino]-2,5-difluoro-N-(propan-2-yl)benzamide]
The EC50 of the first is 3-fold lower: 77.9 nM for the first, 233 nM for the second. The first is the more potent here.

Going from `CC1(NC(=O)c2cccc(Nc3ccc(C(=O)N=C4NCCN4)cc3C(C)(C)C)c2Cl)CC1` [Compound 132, 3-tert-butyl-4-({2-chloro-3-[(1-methylcyclopropyl)carbamoyl]phenyl}amino)-N-[imidazolidin-2-ylidene]benzamide] to `CC1(NC(=O)c2cccc(Nc3ccc(C(=O)N=C4NCCN4)cc3C3CCCO3)c2Cl)CC1` (stereo not shown) [Compound 137, 4-({2-chloro-3-[(1-methylcyclopropyl)carbamoyl]phenyl}amino)-N-[imidazolidin-2-ylidene]-3-(oxolan-2-yl)benzamide], the EC50 rises from 23.6 nM to 204 nM (8.6-fold).

`O=C(N=C1NCCN1)c1cc(F)c(Nc2cccc(C(=O)N3CCOCC3)c2Cl)c(C2CCOC2)c1` (stereo not shown) [Compound 134, 4-{[2-chloro-3-(morpholine-4-carbonyl)phenyl]amino}-3-fluoro-N-[imidazolidin-2-ylidene]-5-(oxolan-3-yl)benzamide] and `O=C(N=C1NCCN1)c1cc(F)c(Nc2nccc(C(=O)N3CCOCC3)c2Cl)c(C2CC2)c1` [Compound 153, 4-{[3-chloro-4-(morpholine-4-carbonyl)pyridin-2-yl]amino}-3-cyclopropyl-5-fluoro-N-[imidazolidin-2-ylidene]benzamide] are within 1.5-fold of each other in EC50: 39.2 nM for the first, 31.6 nM for the second.

`CC1(NC(=O)c2cccc(Nc3c(F)cc(C(=O)N=C4NCCN4)cc3C3CCCO3)c2Cl)CC1` (stereo not shown) [Compound 135, 4-({2-chloro-3-[(1-methylcyclopropyl)carbamoyl]phenyl}amino)-3-fluoro-N-[imidazolidin-2-ylidene]-5-(oxolan-2-yl)benzamide] and `CC1(NC(=O)c2ccnc(Nc3c(F)cc(C(=O)N=C4NCCN4)cc3C3CC3)c2Cl)CC1` [Compound 136, 3-chloro-2-[(2-cyclopropyl-6-fluoro-4-{[imidazolidin-2-ylidene]carbamoyl}phenyl)amino]-N-(1-methylcyclopropyl)pyridine-4-carboxamide] are within 1.5-fold of each other in EC50: 28.7 nM for the first, 32 nM for the second.

Compared with `CC1(NC(=O)c2cc(F)cc(Nc3ccc(C(=O)N=C4NCCN4)cc3C3CC3)c2F)CC1` [Compound 139, 3-[(2-cyclopropyl-4-{[imidazolidin-2-ylidene]carbamoyl}phenyl)amino]-2,5-difluoro-N-(1-methylcyclopropyl)benzamide], `CC(C)NC(=O)c1cc(F)cc(Nc2ccc(C(=O)N=C3NCCN3)cc2C2CC2)c1C1CC1` [Compound 148, 2-cyclopropyl-3-[(2-cyclopropyl-4-{[imidazolidin-2-ylidene]carbamoyl}phenyl)amino]-5-fluoro-N-(propan-2-yl)benzamide] is 2.3-fold higher in EC50: 152 nM for the first, 347 nM for the second.

Going from `N#CC1(C(=O)Nc2cccc(Nc3ccc(C(=O)N=C4NCCN4)cc3C3CC3)c2)CC1` [Compound 141, 4-{[3-(1-cyanocyclopropaneamido)phenyl]amino}-3-cyclopropyl-N-[imidazolidin-2-ylidene]benzamide] to `CC1(NC(=O)c2cccc(Nc3ncc(C(=O)N=C4NCCN4)cc3C3CC3)c2Cl)CC1` [Compound 146, 6-({2-chloro-3-[(1-methylcyclopropyl)carbamoyl]phenyl}amino)-5-cyclopropyl-N-[imidazolidin-2-ylidene]pyridine-3-carboxamide], the EC50 rises from 150 nM to 253 nM (1.7-fold).

`O=C(N=C1NCCN1)c1cc(F)c(Nc2cccc(C(=O)N3CCOCC3C(F)(F)F)c2)c(C2CC2)c1` (stereo not shown) [Compound 142, 3-cyclopropyl-5-fluoro-N-[imidazolidin-2-ylidene]-4-({3-[3-(trifluoromethyl)morpholine-4-carbonyl]phenyl}amino)benzamide] and `O=C(N=C1NCCN1)c1cc(F)c(Nc2cccc(C(=O)N3CCOC(C(F)(F)F)C3)c2)c(C2CC2)c1` (stereo not shown) [Compound 144, 3-cyclopropyl-5-fluoro-N-[imidazolidin-2-ylidene]-4-({3-[2-(trifluoromethyl)morpholine-4-carbonyl]phenyl}amino)benzamide] are within 1.5-fold of each other in EC50: 41.4 nM for the first, 48.1 nM for the second.

Going from `O=C(N=C1NCCN1)c1cc(F)c(Nc2cccc(C(=O)N3CCOCC3)c2)c(C2CCCO2)c1` (stereo not shown) [Compound 145, 3-fluoro-N-[imidazolidin-2-ylidene]-4-{[3-(morpholine-4-carbonyl)phenyl]amino}-5-(oxolan-2-yl)benzamide] to `O=C(N=C1NCCN1)c1cc(F)c(Nc2nccc(C(=O)N3CCOCC3)c2F)c(C2CC2)c1` [Compound 156, 3-cyclopropyl-5-fluoro-4-{[3-fluoro-4-(morpholine-4-carbonyl)pyridin-2-yl]amino}-N-[imidazolidin-2-ylidene]benzamide], the EC50 falls from 475 nM to 40.7 nM (12-fold).

First: CC1(NC(=O)c2ccnc(Nc3c(F)cc(C(=O)N=C4NCCN4)cc3C3CC3)c2F)CC1 [Compound 147, 2-[(2-cyclopropyl-6-fluoro-4-{[imidazolidin-2-ylidene]carbamoyl}phenyl)amino]-3-fluoro-N-(1-methylcyclopropyl)pyridine-4-carboxamide]
Second: N#CC1(NC(=O)c2ccnc(Nc3c(F)cc(C(=O)N=C4NCCN4)cc3C3CC3)c2F)CC1 [Compound 152, N-(1-cyanocyclopropyl)-2-[(2-cyclopropyl-6-fluoro-4-{[imidazolidin-2-ylidene]carbamoyl}phenyl)amino]-3-fluoropyridine-4-carboxamide]
The EC50 of the first is 11-fold lower: 99.4 nM for the first, 1140 nM for the second. The first is the more potent here.

`O=C(N=C1NCCN1)c1cc(F)c(Nc2nccc(C(=O)N3C[C@H]4C[C@@H]3CO4)c2Cl)c(C2CC2)c1` [Compound 154, 4-({3-chloro-4-[(1R,4R)-2-oxa-5-azabicyclo[2.2.1]heptane-5-carbonyl]pyridin-2-yl}amino)-3-cyclopropyl-5-fluoro-N-[imidazolidin-2-ylidene]benzamide] and `O=C(N=C1NCCN1)c1cc(F)c(Nc2nccc(C(=O)N3C[C@@H]4C[C@H]3CO4)c2Cl)c(C2CC2)c1` [Compound 155, 4-({3-chloro-4-[(1S,4S)-2-oxa-5-azabicyclo[2.2.1]heptane-5-carbonyl]pyridin-2-yl}amino)-3-cyclopropyl-5-fluoro-N-[imidazolidin-2-ylidene]benzamide] are within 1.5-fold of each other in EC50: 69.8 nM for the first, 51.8 nM for the second.

With `CC1(NC(=O)c2nccc(Nc3c(F)cc(C(=O)N=C4NCCN4)cc3C3CC3)c2Cl)CC1` [Compound 157, 3-chloro-4-[(2-cyclopropyl-6-fluoro-4-{[imidazolidin-2-ylidene]carbamoyl}phenyl)amino]-N-(1-methylcyclopropyl)pyridine-2-carboxamide] the EC50 was 26.6 nM.
